From patent US20250288571A1 (Nested Therapeutics, Inc., priority 2024, published 2025) come the findings set out here.

The term viability denotes the share of living cells, or the viability signal relative to a control. By IC50 is commonly meant the concentration that inhibits the measured activity by half.

Where “and” joins values, the source holds several entries; their conditions need not be identical. Equal entries are not always repeated. Where two headings read alike, the source gives them in different places. Some results are limits rather than exact numbers.

One series relates to HCT116 cells. Description: HCT116 Cell Titer Glow assay (CTG). Particulars: for viability at 1000 µM: read-out: CTG % cell viability 1000 uM HCT116.20, HCT116 cells, 72 hours, 1000 uM; for viability at 1000 µM / CTG % cell viability 1000 uM HCT116.20: percent cells remaining after treatment; for IC50: read-out: CTG IC50 (nM) Cell Line: HCT116.20. Background: In ATP-based viability assays light output follows the ATP content of the culture.

The test system of another series is IPC298 cells. Description: IPC298 Cell Titer Glow assay (CTG). The settings on record: for IC50: read-out: CTG IC50 (nM) Cell Line: IPC298.2.

Experimental for HCT116 cells: HCT116 and IPC298 Cell Titer Glow Assay (CTG)
HCT116 cells and IPC298 cells were diluted with culture medium to the desired density 500 cells/well and 40 μL of cell suspension were added into each well of 384-well cell culture plate. […] The plates were covered and stored at room temperature for 30 minutes without shaking and then the plates were transferred into a 37° C. 5% CO2 incubator overnight.
A 10 mM solution in dimethyl sulfoxide (DMSO) was prepared for each test compound. A 3 fold, 10-point dilution was prepared from the stock solution. 40 nl of each solution in 100% DMSO was added to the 384-well plate and diluted to a final 0.1% DMSO final concentration. The plates were then incubated for 72 hours (for both cell lines) at 37° C.
CellTiter-Glo® 2.0 Reagent (Promega, G9242) was removed from the refrigerator and equilibrated at room temperature (23° C.) for 60 minutes. The plates were then removed from the incubator and allowed to equilibrate to room temperature. 30 μL CellTiter-Glo® 2.0 Reagent were added to the assay plates, and spun 1 min/1000 rpm. The plates were allowed to stand for about 20 minutes before being read on Envision using a standard luminescence readout. DMSO was employed as negative control (High control, HC) and 1 uM Staurosporine was employed as positive control (Low control, LC).
The percent (%) inhibition at each concentration of compound was calculated based on the signal in the negative and positive control wells contained within each assay plate.

For the compound `CNS(=O)(=O)Nc1nccc(Cc2cncc(OC3CCC(C)CC3)c2C)c1F` (single isomer, unassigned) [Example 74, 3-fluoro-4-[[4-methyl-5-(4-methylcyclohexoxy)-3-pyridyl]methyl]-N-(methylsulfamoyl)pyridin-2-amine], in the series on HCT116 cells (Homo sapiens, HCT-116, 72 h), the viability at 1000 µM came out at 92.9% and the IC50 was greater than 1000 nM. Further, the viability at 100 µM in the series on IPC298 cells (Homo sapiens, IPC-298, 72 h, read-out: CTG % cell viability 100 uM IPC298.2, IPC298 cells, 72 hours, 100 uM, percent cells remaining after treatment) came to 88.6%. Also, in the series with IPC298 cells (Homo sapiens, IPC-298, 72 h), the IC50 was greater than 1000 nM.
Turning to `CNS(=O)(=O)N1CCc2c(Cc3cncc(Nc4ccc(Cl)cc4F)c3C)ccnc21` [Example 43, 4-({5-[(4-chloro-2-fluorophenyl)amino]-4-methylpyridin-3-yl}methyl)-N-methyl-2H,3H-pyrrolo[2,3-b]pyridine-1-sulfonamide], the 50% inhibitory concentration (IC50) is 10 to 100 nM with HCT116 cells (Homo sapiens, HCT-116, 72 h) and less than 10 nM in the series on IPC298 cells (Homo sapiens, IPC-298, 72 h).
Turning to `CNS(=O)(=O)Nc1nccc(Cc2cncc(-c3ccc(Cl)cc3F)c2C)c1F` [Example 44, [(4-{[5-(4-chloro-2-fluorophenyl)-4-methylpyridin-3-yl]methyl}-3-fluoropyridin-2-yl)sulfamoyl](methyl)amine], in the series with HCT116 cells (Homo sapiens, HCT-116, 72 h), the viability at 1000 µM turned out to be 28% and the 50% inhibitory concentration (IC50) was greater than 1000 nM. Moreover, the IC50 in the series on IPC298 cells (Homo sapiens, IPC-298, 72 h) lay within 10 to 100 nM.
Take `CNS(=O)(=O)Nc1nccc(Cc2cncc(Nc3ccc(Cl)cc3F)c2C)c1OC` [Example 45, 4-[[5-(4-chloro-2-fluoro-anilino)-4-methyl-3-pyridyl]methyl]-3-methoxy-N-(methylsulfamoyl)pyridin-2-amine]: the IC50 in the series with HCT116 cells (Homo sapiens, HCT-116, 72 h) lay in the range of 10 to 100 nM.
`CNS(=O)(=O)Nc1ccc(Cc2cncc(Oc3ncc(Cl)cc3F)c2C)cn1` [Example 46, 5-[[5-[(5-chloro-3-fluoro-2-pyridyl)oxy]-4-methyl-3-pyridyl]methyl]-N-(methylsulfamoyl)pyridin-2-amine]: the “CTG % cell viability 1000 uM HCT116.20” value in the series with HCT116 cells (HCT116 cells, 72 hours) is 82.81, % and 79.54%. Moreover, the IC50 was greater than 1000 nM with HCT116 cells (Homo sapiens, HCT-116, 72 h) and greater than 1000 nM in the series with IPC298 cells (Homo sapiens, IPC-298, 72 h). In addition, the “CTG % cell viability 1000 uM IPC298.2” value in the series on IPC298 cells (IPC298 cells, 72 hours, 1000 uM, percent cells remaining after treatment) is on record as 19.34%.
On to `CNS(=O)(=O)Nc1nccc(Cc2cncc(Nc3ccc(C4CC4)cc3F)c2C)c1F` [Example 47, 4-[[5-(4-cyclopropyl-2-fluoro-anilino)-4-methyl-3-pyridyl]methyl]-3-fluoro-N-(methylsulfamoyl)pyridin-2-amine], for which the half-maximal inhibitory concentration (IC50) in the series on HCT116 cells (Homo sapiens, HCT-116, 72 h) is less than 10 nM; in the series with IPC298 cells (Homo sapiens, IPC-298, 72 h), less than 10 nM.
For the compound `CNS(=O)(=O)Nc1ccc(Cc2cncc(Oc3ncc(Cl)cc3F)c2C)cn1` [Example 48, 5-[[5-[(5-chloro-3-fluoro-2-pyridyl)oxy]-4-methyl-3-pyridyl]methyl]-N-(methylsulfamoyl)pyridin-2-amine], in the series on HCT116 cells (HCT116 cells, 72 hours), the “CTG % cell viability 1000 uM HCT116.20” value amounted to 17.49% and the half-inhibitory concentration (IC50) is greater than 1000 nM. The IC50 with IPC298 cells (IPC298 cells, 72 hours) was greater than 1000 nM.
Turning to `CNS(=O)(=O)Nc1nccc(Cc2cncc(Oc3ccc(Cl)cc3F)c2C)c1F` [Example 49, [(4-{[5-(4-chloro-2-fluorophenoxy)-4-methylpyridin-3-yl]methyl}-3-fluoropyridin-2-yl)sulfamoyl](methyl)amine], the half-maximal inhibitory concentration (IC50) in the series with HCT116 cells (Homo sapiens, HCT-116, 72 h) is 10 to 100 nM; in the series on IPC298 cells (Homo sapiens, IPC-298, 72 h), less than 10 nM.
On to `CNS(=O)(=O)Nc1nccc(Cc2cncc(Cc3ccc(Cl)cc3F)c2C)c1F` [Example 50, {[4-({5-[(4-chloro-2-fluorophenyl)methyl]-4-methylpyridin-3-yl}methyl)-3-fluoropyridin-2-yl]sulfamoyl}(methyl)amine], for which the half-maximal inhibitory concentration (IC50) with HCT116 cells (Homo sapiens, HCT-116, 72 h) was 500 to 1000 nM; with IPC298 cells (Homo sapiens, IPC-298, 72 h), 10 to 100 nM.
Take `CNS(=O)(=O)Nc1nccc(Cc2cncc(Oc3ccc(C(F)(F)F)cc3F)c2C)c1F` [Example 51, 3-fluoro-4-[[5-[2-fluoro-4-(trifluoromethyl)phenoxy]-4-methyl-3-pyridyl]methyl]-N-(methylsulfamoyl)pyridin-2-amine]: the IC50 with HCT116 cells (Homo sapiens, HCT-116, 72 h) was in the range of 100 to 500 nM.
On to `CNS(=O)(=O)Nc1nccc(Cc2cnnc(Nc3ccc(Cl)cc3F)c2C)c1F` [Example 52, N-(4-chloro-2-fluoro-phenyl)-5-[[3-fluoro-2-(methylsulfamoylamino)-4-pyridyl]methyl]-4-methyl-pyridazin-3-amine], for which the half-maximal inhibitory concentration (IC50) is 100 to 500 nM in the series on HCT116 cells (Homo sapiens, HCT-116, 72 h) and less than 10 nM with IPC298 cells (Homo sapiens, IPC-298, 72 h).
Consider `CNS(=O)(=O)Nc1nccc(Cc2cncc(Nc3ccc(Cl)cc3F)c2C)n1` [Example 53, 4-[[5-(4-chloro-2-fluoro-anilino)-4-methyl-3-pyridyl]methyl]-N-(methylsulfamoyl)pyrimidin-2-amine], for which the half-inhibitory concentration (IC50) with HCT116 cells (Homo sapiens, HCT-116, 72 h) lay within 10 to 100 nM.
For the compound `CNS(=O)(=O)Nc1nccc(Cc2cncc(Oc3cccc(Cl)c3F)c2)c1F` [Example 54, 4-[[5-(3-chloro-2-fluoro-phenoxy)-3-pyridyl]methyl]-3-fluoro-N-(methylsulfamoyl)pyridin-2-amine], the viability at 1000 µM was determined as 81.2% in the series on HCT116 cells (Homo sapiens, HCT-116, 72 h) and 70.1% in the series on IPC298 cells (Homo sapiens, IPC-298, 72 h, read-out: CTG % cell viability 1000 uM IPC298.2, IPC298 cells, 72 hours, 1000 uM, percent cells remaining after treatment). Also, the IC50 in the series on HCT116 cells (Homo sapiens, HCT-116, 72 h) was greater than 1000 nM; with IPC298 cells (Homo sapiens, IPC-298, 72 h), greater than 1000 nM.
`CNS(=O)(=O)Nc1nccc(Cc2cncc(Nc3ncccn3)c2C)c1F` [Example 55, N-[5-[[3-fluoro-2-(methylsulfamoylamino)-4-pyridyl]methyl]-4-methyl-3-pyridyl]pyrimidin-2-amine]: in the series on HCT116 cells (Homo sapiens, HCT-116, 72 h), the viability at 1000 µM stood at 80.9% and the IC50 is greater than 1000 nM.
In the case of `CNS(=O)(=O)Nc1nccc(Cc2cncc(-c3cc(Cl)ccc3F)c2C)c1F` [Example 56, [(4-{[5-(5-chloro-2-fluorophenyl)-4-methylpyridin-3-yl]methyl}-3-fluoropyridin-2-yl)sulfamoyl](methyl)amine], the 50% inhibitory concentration (IC50) in the series on HCT116 cells (Homo sapiens, HCT-116, 72 h) was 100 to 500 nM; with IPC298 cells (Homo sapiens, IPC-298, 72 h) it was less than 10 nM.
Regarding `CNS(=O)(=O)Nc1nccc(Cc2cncc(-c3cccc(Cl)c3F)c2C)c1F` [Example 57, [(4-{[5-(3-chloro-2-fluorophenyl)-4-methylpyridin-3-yl]methyl}-3-fluoropyridin-2-yl)sulfamoyl](methyl)amine], in the series on HCT116 cells (HCT116 cells, 72 hours), the “CTG % cell viability 1000 uM HCT116.20” value is 45.51%. Besides, in the series on HCT116 cells (Homo sapiens, HCT-116, 72 h), the viability at 1000 µM amounted to 56.8%. The IC50 in the series with HCT116 cells (Homo sapiens, HCT-116, 72 h) is greater than 1000 nM; in the series with IPC298 cells (Homo sapiens, IPC-298, 72 h), 10 to 100 nM.
Regarding `CNS(=O)(=O)Nc1nccc(Cc2cncc(Nc3ccc(C(C)C)cc3F)c2C)c1F` [Example 58, 3-fluoro-4-[[5-(2-fluoro-4-isopropyl-anilino)-4-methyl-3-pyridyl]methyl]-N-(methylsulfamoyl)pyridin-2-amine], the half-inhibitory concentration (IC50) with HCT116 cells (Homo sapiens, HCT-116, 72 h) is less than 10 nM; with IPC298 cells (Homo sapiens, IPC-298, 72 h), less than 10 nM.
As for `CNS(=O)(=O)Nc1nccc(Cc2cncc(-n3ccc4cc(Cl)ccc43)c2)c1F` [Example 59, [(4-{[5-(5-chloroindol-1-yl)pyridin-3-yl]methyl}-3-fluoropyridin-2-yl)sulfamoyl](methyl)amine], the IC50 fell in the range of 100 to 500 nM in the series on HCT116 cells (Homo sapiens, HCT-116, 72 h) and 10 to 100 nM in the series on IPC298 cells (Homo sapiens, IPC-298, 72 h).
On the same counts, the results for `C#Cc1cnc(Nc2cncc(Cc3ccnc(NS(=O)(=O)NC)c3F)c2C)c(F)c1` [Example 60, 4-[[5-[(5-ethynyl-3-fluoro-2-pyridyl)amino]-4-methyl-3-pyridyl]methyl]-3-fluoro-N-(methylsulfamoyl)pyridin-2-amine] are 100 to 500 nM and less than 10 nM.
For the compound `CNS(=O)(=O)Nc1nccc(Cc2cncc(Nc3ncc(Cl)cc3F)c2C)c1F` [Example 62, 4-[[5-[(5-chloro-3-fluoro-2-pyridyl)amino]-4-methyl-3-pyridyl]methyl]-3-fluoro-N-(methylsulfamoyl)pyridin-2-amine], in the series on HCT116 cells (Homo sapiens, HCT-116, 72 h), the viability at 1000 µM was found to be 46.4%. Moreover, the half-inhibitory concentration (IC50) was greater than 1000 nM in the series on HCT116 cells (Homo sapiens, HCT-116, 72 h) and 10 to 100 nM with IPC298 cells (Homo sapiens, IPC-298, 72 h).
